Reference: the NIST ThermoML archive (doi:10.1021/je500114m)
Numbers after ± are expanded uncertainties.

Test: mn = molality of the nth substance listed, in mol/kg
Settings: 298.15 K, Ring tensiometer

SMILES: CC/C=C\CCOC(C)=O [(Z)-3-hexenyl acetate] + O
- surface tension liquid-gas (m1 = 0.0006): 66.8 ± 0.9 mN/m
- surface tension liquid-gas (m1 = 0.0015): 62.3 ± 0.8 mN/m
- surface tension liquid-gas (m1 = 0.0019): 58.7 ± 1.1 mN/m

SMILES: O [water] + COC(=O)c1ccccc1O
- surface tension liquid-gas (m2 = 0): 71 ± 0.9 mN/m

SMILES: CC/C=C\CCO [(Z)-3-hexen-1-ol] + O
- surface tension liquid-gas (m1 = 0.001): 69.5 ± 0.9 mN/m
- surface tension liquid-gas (m1 = 0.003): 65.2 ± 1.4 mN/m
- surface tension liquid-gas (m1 = 0.005): 63.5 ± 0.8 mN/m
- surface tension liquid-gas (m1 = 0.006): 61.5 ± 0.8 mN/m

SMILES: O [water] + CC/C=C\CCO
- surface tension liquid-gas (m2 = 0): 71.5 ± 0.9 mN/m

SMILES: COC(=O)c1ccccc1O [methyl 2-hydroxybenzoate] + O
- surface tension liquid-gas (m1 = 0.001): 70.8 ± 0.9 mN/m
- surface tension liquid-gas (m1 = 0.0021): 70.1 ± 0.9 mN/m
- surface tension liquid-gas (m1 = 0.0031): 68.9 ± 0.9 mN/m
- surface tension liquid-gas (m1 = 0.0053): 65.2 ± 1.1 mN/m

SMILES: C=CC(C)(C)O [2-methyl-3-buten-2-ol] + O
- surface tension liquid-gas (m1 = 0.001): 70.6 ± 0.9 mN/m
- surface tension liquid-gas (m1 = 0.003): 69.7 ± 0.9 mN/m
- surface tension liquid-gas (m1 = 0.0052): 69.5 ± 0.9 mN/m
- surface tension liquid-gas (m1 = 0.0088): 67.7 ± 0.9 mN/m

SMILES: O [water] + C=CC(C)(C)O
- surface tension liquid-gas (m2 = 0): 70.8 ± 1 mN/m

SMILES: O [water] + CC/C=C\CCOC(C)=O
- surface tension liquid-gas (m2 = 0): 70.2 ± 1 mN/m
